Source: article PMC4914996, “Elimination of a ligand gating site generates a supersensitive olfactory receptor” (Scientific Reports, 2016)
Where a chain is given by its changes, count along the chain named. Read-outs that look alike come from different tables or passages of the source.

Assays:
Assay in all cases: Fluo-4 Ca2+ influx through cAMP-gated CNG channel in stable HEK293 line
[1] = molecular target: T1, TAAR13c (Danio rerio, UniProt Q5QNP2, W296F); format: cell-based, Homo sapiens
T1 sequence (Q5QNP2 1-341 W296F): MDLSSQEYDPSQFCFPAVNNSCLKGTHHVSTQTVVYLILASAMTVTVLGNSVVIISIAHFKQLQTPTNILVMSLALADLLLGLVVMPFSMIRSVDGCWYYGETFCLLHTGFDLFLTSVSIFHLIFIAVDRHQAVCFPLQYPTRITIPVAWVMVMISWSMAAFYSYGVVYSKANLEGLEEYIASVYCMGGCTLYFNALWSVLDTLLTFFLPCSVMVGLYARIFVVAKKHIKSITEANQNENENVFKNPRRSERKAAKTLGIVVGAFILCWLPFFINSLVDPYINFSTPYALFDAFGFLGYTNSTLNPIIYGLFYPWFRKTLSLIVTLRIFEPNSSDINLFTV
Excerpt: (§1) Fluo-4 Ca2+ influx through cAMP-gated CNG channel in stable HEK293 line on TAAR13c

[2] = molecular target: T2, TAAR13c (Danio rerio, UniProt Q5QNP2, D78E); format: cell-based
T2 sequence (Q5QNP2 1-341 D78E): T1 sequence (Q5QNP2 1-341 W296F) with D78E, F296W
Excerpt: as §1

[3] = molecular target: T3, TAAR13c (Danio rerio, UniProt Q5QNP2, D279E); format: cell-based
T3 sequence (Q5QNP2 1-341 D279E): T1 sequence (Q5QNP2 1-341 W296F) with D279E, F296W
Excerpt: as §1

[4] = molecular target: T4, TAAR13c (Danio rerio, UniProt Q5QNP2, D279A); format: cell-based
T4 sequence (Q5QNP2 1-341 D279A): T1 sequence (Q5QNP2 1-341 W296F) with D279A, F296W
Excerpt: as §1

[5] = molecular target: T5, TAAR13c (Danio rerio, UniProt Q5QNP2); format: cell-based
T5 sequence (Q5QNP2 1-341): T1 sequence (Q5QNP2 1-341 W296F) with F296W
Excerpt: as §1

[6] = molecular target: T6, TAAR13c (Danio rerio, UniProt Q5QNP2, W296Y); format: cell-based
T6 sequence (Q5QNP2 1-341 W296Y): T1 sequence (Q5QNP2 1-341 W296F) with F296Y
Excerpt: as §1

[7] = molecular target: T7, TAAR13c (Danio rerio, UniProt Q5QNP2, D279N); format: cell-based
T7 sequence (Q5QNP2 1-341 D279N): T1 sequence (Q5QNP2 1-341 W296F) with D279N, F296W
Excerpt: as §1

[8] = molecular target: T8, TAAR13c (Danio rerio, UniProt Q5QNP2, W296G); format: cell-based; details: read-out: EC50 (μM, mean±SEM) / cad
T8 sequence (Q5QNP2 1-341 W296G): T1 sequence (Q5QNP2 1-341 W296F) with F296G
Excerpt: as §1

[9] = read-out: EC50 (μM, mean±SEM) / put
[10] = read-out: EC50 (μM, mean±SEM) / cad

| EC50 [1, 9] [µM] | EC50 [2, 9] [µM] | EC50 [3, 9] [µM] | EC50 [4, 9] [µM] | EC50 [5, 9] [µM] | EC50 [6, 9] [µM] | EC50 [7, 9] [µM] | EC50 [1, 10] [µM] | EC50 [2, 10] [µM] | EC50 [3, 10] [µM] | EC50 [4, 10] [µM] | EC50 [5, 10] [µM] | EC50 [8] [µM] | EC50 [6, 10] [µM] | EC50 [7, 10] [µM] | SMILES |
| --- | --- | --- | --- | --- | --- | --- | --- | --- | --- | --- | --- | --- | --- | --- | --- |
| > 1000 | > 1000 | 10 ± 4 | 31 ± 13 | > 1000 | > 1000 | 7.3 ± 3.6 | – | – | – | – | – | – | – | – | NCCCCN [putrescine] |
| – | – | – | – | – | – | – | 42 ± 6 | 64 ± 28 | 0.72 ± 0.24 | 2.1 ± 1 | 15.2 ± 2.2 | 55 ± 48 | 28 ± 8 | 1.1 ± 0.8 | NCCCCCN [cadaverine] |
